Data published in paper PMC4133348, “Domain Organization, Catalysis and Regulation of Eukaryotic Cystathionine Beta-Synthases” (PLoS ONE, 2014).
Each block holds one molecule with its values, some of them ahead of it.

Experiments:
[1] = biological target: T1, yCBS (Saccharomyces cerevisiae, UniProt P32582); test: differential scanning calorimetry; format: binding; settings: 100 µM AdoMet, 20 mM HEPES pH 7.4, 50 µM PLP, 3 °C/min
T1 construct: gene CYS4
T1 sequence (P32582 1-507): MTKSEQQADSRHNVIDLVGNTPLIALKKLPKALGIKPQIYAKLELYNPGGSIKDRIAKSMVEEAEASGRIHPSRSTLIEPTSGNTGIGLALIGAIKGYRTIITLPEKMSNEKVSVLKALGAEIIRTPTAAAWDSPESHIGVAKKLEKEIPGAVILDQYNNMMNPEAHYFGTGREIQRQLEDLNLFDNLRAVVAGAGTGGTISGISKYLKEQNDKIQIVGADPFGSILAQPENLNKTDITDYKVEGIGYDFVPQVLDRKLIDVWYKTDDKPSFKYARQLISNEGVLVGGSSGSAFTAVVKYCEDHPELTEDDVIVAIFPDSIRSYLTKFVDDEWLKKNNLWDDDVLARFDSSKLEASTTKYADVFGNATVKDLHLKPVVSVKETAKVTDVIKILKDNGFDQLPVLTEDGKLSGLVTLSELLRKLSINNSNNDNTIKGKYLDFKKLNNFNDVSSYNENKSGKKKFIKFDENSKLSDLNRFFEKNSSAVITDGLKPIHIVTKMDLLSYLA

[2] = biological target: T1, yCBS; test: isothermal titration calorimetry; format: binding
[3] = biological target: T2, hCBS (Homo sapiens, UniProt P35520); test: […]serine radioisotope assay of canonical reaction (activation); format: biochemical; settings: 10 mM L-serine, 10 mM L-homocysteine, 0.2 mM PLP, pH 8.6, 37 °C; allosteric activator
T2 construct: gene CBS; full-length, permanent C-terminal 6xHis, E. coli, homotetramer of 63 kDa polypeptides, heme-containing
T2 sequence (P35520 1-551): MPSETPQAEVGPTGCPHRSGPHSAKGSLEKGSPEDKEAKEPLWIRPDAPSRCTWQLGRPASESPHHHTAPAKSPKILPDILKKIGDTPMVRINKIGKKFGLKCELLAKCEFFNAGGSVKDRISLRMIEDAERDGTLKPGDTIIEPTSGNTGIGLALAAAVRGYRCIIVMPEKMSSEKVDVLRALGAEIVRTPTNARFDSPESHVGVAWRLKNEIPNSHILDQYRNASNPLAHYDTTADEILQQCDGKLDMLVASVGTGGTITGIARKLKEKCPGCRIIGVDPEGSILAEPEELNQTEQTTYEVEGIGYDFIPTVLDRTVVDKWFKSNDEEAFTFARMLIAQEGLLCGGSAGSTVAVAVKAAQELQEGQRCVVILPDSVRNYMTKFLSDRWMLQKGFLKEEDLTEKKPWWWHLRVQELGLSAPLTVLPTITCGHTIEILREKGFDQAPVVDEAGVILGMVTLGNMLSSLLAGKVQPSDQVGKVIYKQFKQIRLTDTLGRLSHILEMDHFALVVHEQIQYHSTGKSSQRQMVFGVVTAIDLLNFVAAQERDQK

[4] = biological target: T3, dCBS (Drosophila melanogaster, UniProt Q9VRD9); test: […]serine radioisotope assay of canonical reaction; format: biochemical; settings: 10 mM L-serine, 10 mM L-homocysteine, 0.2 mM PLP, pH 8.6, 37 °C
T3 construct: gene Cbs; full-length, permanent C-terminal 6xHis (pET28-C-dCBS), E. coli Rosetta2 (DE3), homodimer, heme-containing
T3 sequence (Q9VRD9 1-522): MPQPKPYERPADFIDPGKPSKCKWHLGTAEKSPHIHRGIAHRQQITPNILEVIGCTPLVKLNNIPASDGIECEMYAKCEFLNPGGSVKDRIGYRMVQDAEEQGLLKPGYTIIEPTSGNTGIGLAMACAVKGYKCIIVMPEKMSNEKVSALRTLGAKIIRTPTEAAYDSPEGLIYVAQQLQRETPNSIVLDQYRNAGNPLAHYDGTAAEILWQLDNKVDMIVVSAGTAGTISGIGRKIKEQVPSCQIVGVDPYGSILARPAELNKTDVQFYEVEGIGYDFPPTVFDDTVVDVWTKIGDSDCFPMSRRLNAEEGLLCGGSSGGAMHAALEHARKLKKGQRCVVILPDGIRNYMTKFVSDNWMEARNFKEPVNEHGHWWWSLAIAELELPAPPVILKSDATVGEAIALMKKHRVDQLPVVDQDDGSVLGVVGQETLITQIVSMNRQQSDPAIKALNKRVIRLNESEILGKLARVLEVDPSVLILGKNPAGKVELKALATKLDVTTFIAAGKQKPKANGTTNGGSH

[5] = biological target: T2, hCBS; test: as above; format: biochemical; settings: 10 mM L-serine, 10 mM L-homocysteine, 0.2 mM PLP, pH 8.6, 37 °C; no AdoMet
[6] = biological target: the molecule itself; test: native gel or EMSA; purified enzymes (100 ng CBS per lane) separated in a 4–15% polyacrylamide gradient gel under native conditions, transferred to PVDF and probed with monoclonal anti-6xHis antibody; oligomeric state of each enzyme
[7] = biological target: T4, human cystathionine beta-synthase, full-length (human), P35520; test: as above; settings: remark: other sources report otherwise
T4 chain: T2 sequence (P35520 1-551)

dTm [1]: ~ 0.2 °C
Kd [2]: 5 ± 0.5 µM
fold increase in specific activity at 300 μM [3]: ~ 3.2 fold
Molecule: C[S+](CC[C@H](N)C(=O)O)C[C@H]1O[C@@H](n2cnc3c(N)ncnc32)[C@H](O)[C@@H]1O (stereo partly shown) [AdoMet]

Molecule: N[C@@H](CO)C(=O)O [Ser]
[14C]serine radioisotope assay of canonical reaction [4]: specific activity compared to hCBS in the canonical condensation of Ser and Hcy
[14C]serine radioisotope assay of canonical reaction [5]: specific activity compared to hCBS in the canonical condensation of Ser and Hcy

B1: 45 kDa hCBS (hCBS V414*), truncated human cystathionine beta-synthase lacking the regulatory domain (domain or fragment, UniProt P35520 1-413, looked up)
chain: MPSETPQAEVGPTGCPHRSGPHSAKGSLEKGSPEDKEAKEPLWIRPDAPSRCTWQLGRPASESPHHHTAPAKSPKILPDILKKIGDTPMVRINKIGKKFGLKCELLAKCEFFNAGGSVKDRISLRMIEDAERDGTLKPGDTIIEPTSGNTGIGLALAAAVRGYRCIIVMPEKMSSEKVDVLRALGAEIVRTPTNARFDSPESHVGVAWRLKNEIPNSHILDQYRNASNPLAHYDTTADEILQQCDGKLDMLVASVGTGGTITGIARKLKEKCPGCRIIGVDPEGSILAEPEELNQTEQTTYEVEGIGYDFIPTVLDRTVVDKWFKSNDEEAFTFARMLIAQEGLLCGGSAGSTVAVAVKAAQELQEGQRCVVILPDSVRNYMTKFLSDRWMLQKGFLKEEDLTEKKPWWWHLR
notes: cystathionine beta-synthase, Homo sapiens, C-terminally truncated by a stop at V414 (regulatory domain removed); not shown: 6xHis, C-terminal, kept
stoichiometry N [6]: 2

B2: Drosophila melanogaster cystathionine beta-synthase, full-length (enzyme, UniProt Q9VRD9 1-522, looked up)
chain: T3 sequence (Q9VRD9 1-522)
notes: Cloned by NcoI and HindIII into pET-28a; also called dCBS; source: E. coli Rosetta2 (DE3), purified (TALON, DEAE Sepharose); not shown: 6xHis, C-terminal, kept
stoichiometry N [6]: 2

B3: yCBS L345*, truncated Saccharomyces cerevisiae cystathionine beta-synthase lacking the regulatory domain (domain or fragment, UniProt P32582 1-344, looked up)
chain: MTKSEQQADSRHNVIDLVGNTPLIALKKLPKALGIKPQIYAKLELYNPGGSIKDRIAKSMVEEAEASGRIHPSRSTLIEPTSGNTGIGLALIGAIKGYRTIITLPEKMSNEKVSVLKALGAEIIRTPTAAAWDSPESHIGVAKKLEKEIPGAVILDQYNNMMNPEAHYFGTGREIQRQLEDLNLFDNLRAVVAGAGTGGTISGISKYLKEQNDKIQIVGADPFGSILAQPENLNKTDITDYKVEGIGYDFVPQVLDRKLIDVWYKTDDKPSFKYARQLISNEGVLVGGSSGSAFTAVVKYCEDHPELTEDDVIVAIFPDSIRSYLTKFVDDEWLKKNNLWDDDV
notes: cystathionine beta-synthase, Saccharomyces cerevisiae, C-terminally truncated at L345 (pET28-C-yCBS L345*); Cloned by NcoI and XhoI into pET-28a; source: E. coli Rosetta2 (DE3), purified (TALON, DEAE Sepharose); not shown: 6xHis, C-terminal, kept
stoichiometry N [6]: 2

B4: Saccharomyces cerevisiae cystathionine beta-synthase, full-length (enzyme, UniProt P32582 1-507, looked up)
chain: T1 sequence (P32582 1-507)
notes: Cloned by NcoI and XhoI into pET-28a; also called yCBS; yCBS WT; source: E. coli Rosetta2 (DE3), purified (TALON, DEAE Sepharose); not shown: 6xHis, C-terminal, kept
stoichiometry N [6]: 4

stoichiometry N [7]: 4
B5: human cystathionine beta-synthase, full-length, P35520 1-551 (enzyme)
chain: T2 sequence (P35520 1-551)
